Measured values from the supplement of paper PMC10307832.

Assays:
Experiment in all cases: relative viability (nuclei count vs DMSO), 5 days (fraction); higher = more cells survive
Bexarotene + Alpelisib = compound: C=C(c1ccc(C(=O)O)cc1)c1cc2c(cc1C)C(C)(C)CCC2(C)C [Bexarotene] + Cc1nc(NC(=O)N2CCC[C@H]2C(N)=O)sc1-c1ccnc(C(C)(C)C(F)(F)F)c1 [Alpelisib] (partner 2 µM)
How it was run: (§1)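 The day after seeding in 1536-well plates, lung cancer cell lines were treated by pin tool with a single drug, or with a fixed anchor-drug dose together with five library-drug doses (not always all listed) in √10 steps. After 5 days, a combined fix-and-stain solution (final 0.05% Triton X-100, 1% formaldehyde, 1 ug/ml Hoechst) was added. Nuclei counted on 4× images gave relative viability as treated counts over vehicle counts, reported as the median of duplicate plates.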

Bexarotene + Luminespib = compound: C=C(c1ccc(C(=O)O)cc1)c1cc2c(cc1C)C(C)(C)CCC2(C)C [Bexarotene] + CCNC(=O)c1noc(-c2cc(C(C)C)c(O)cc2O)c1-c1ccc(CN2CCOCC2)cc1 [Luminespib] (partner 0.01 µM)
How it was run: as §1

Bexarotene + Tozasertib = compound: C=C(c1ccc(C(=O)O)cc1)c1cc2c(cc1C)C(C)(C)CCC2(C)C [Bexarotene] + Cc1cc(Nc2cc(N3CCN(C)CC3)nc(Sc3ccc(NC(=O)C4CC4)cc3)n2)n[nH]1 [Tozasertib] (partner 0.1 µM)
How it was run: as §1

Bexarotene + Dasatinib = compound: C=C(c1ccc(C(=O)O)cc1)c1cc2c(cc1C)C(C)(C)CCC2(C)C [Bexarotene] + Cc1nc(Nc2ncc(C(=O)Nc3c(C)cccc3Cl)s2)cc(N2CCN(CCO)CC2)n1 [Dasatinib] (partner 0.075 µM)
How it was run: as §1

Cell Line	relative viability (Bexarotene + Alpelisib; first compound 0.08 µM)	relative viability (Bexarotene + Alpelisib; first compound 0.253 µM)	relative viability (Bexarotene + Alpelisib; first compound 0.8 µM)	relative viability (Bexarotene + Alpelisib; first compound 2.53 µM)	relative viability (Bexarotene + Alpelisib; first compound 8 µM)	relative viability (Bexarotene + Luminespib; first compound 0.08 µM)	relative viability (Bexarotene + Luminespib; first compound 0.253 µM)	relative viability (Bexarotene + Luminespib; first compound 0.8 µM)	relative viability (Bexarotene + Luminespib; first compound 2.53 µM)	relative viability (Bexarotene + Luminespib; first compound 8 µM)	relative viability (Bexarotene + Tozasertib; first compound 0.08 µM)	relative viability (Bexarotene + Tozasertib; first compound 0.253 µM)	relative viability (Bexarotene + Tozasertib; first compound 0.8 µM)	relative viability (Bexarotene + Tozasertib; first compound 2.53 µM)	relative viability (Bexarotene + Tozasertib; first compound 8 µM)	relative viability (Bexarotene + Dasatinib; first compound 0.08 µM)	relative viability (Bexarotene + Dasatinib; first compound 0.253 µM)	relative viability (Bexarotene + Dasatinib; first compound 0.8 µM)	relative viability (Bexarotene + Dasatinib; first compound 2.53 µM)	relative viability (Bexarotene + Dasatinib; first compound 8 µM)
NCI-H358	1.07	0.881	0.579	1.03	0.923	0.136	0.306	0.325	0.244	0.121	0.0977	0.105	0.0984	0.108	0.121	0.224	0.33	0.251	0.234	0.259
NCI-H441	1.09	1.06	0.727		0.841	0.373	0.384	0.314	0.295	0.377	0.709	0.758	0.631	0.676	0.656	0.857	0.701	1	0.717	0.579
NCI-H460	0.654	0.733	0.539	0.596	0.519	0.0252	0.0297	0.0376	0.0318	0.0222	0.541	0.452	0.481	0.399	0.427	0.615	0.531	0.565	0.512	0.505
NCI-H520	0.99	0.775	0.708	0.826	0.803	0.236	0.22	0.229	0.22	0.226	0.409	0.454	0.411	0.417	0.382	0.223	0.211	0.204	0.215	0.187
NCI-H596	0.581	0.6	0.479	0.668	0.565	1.08	1.18	1.01	0.983	0.963	0.998	0.897	0.788	0.934	0.837	0.671	0.654	0.773	0.907	0.704
NCI-H647	1.06	1.15	1.13	1.1	0.843	0.148	0.176	0.211	0.134	0.11	0.351	0.432	0.257	0.279	0.324	0.173	0.153	0.123	0.0933	0.114
NCI-H650	1.18	1.06	1.08	1.06	1	0.779	0.828	0.877	0.898	0.742	0.747	0.724	0.721	0.789	0.687	0.475	0.562	0.441	0.408	0.412
NCI-H661	0.664	0.587	0.776	0.5	0.645	0.943	0.9	0.929	0.89	0.89	0.387	0.357	0.348	0.355	0.341	1.14	0.89	0.837	0.838	0.801
